These results are taken from PubChem BioAssay (NCI).

Among the test systems are DMS 273 small cell lung; NCI-H226 lung; RXF 393 renal; OVCAR-3 ovarian; ACHN renal; IGROV1 ovarian; M19-MEL melanoma; SK-MEL-28 melanoma; MDA-MB-231 breast; BT-549 breast; MDA-N.
What all share (assay): NCI-60 cell line screen, 48 h

“And” between values parts separate entries of the source, which are not always exact repeats. Identical values can stand only once.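 Exposure lasted 48 hours, with cells grown in 96-well plates and compounds tested at five concentrations. GI50 marks 50% less growth. TGI: total growth inhibition.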

Turning to `Cc1cc(=O)[nH]c(NNC(C#N)c2ccccc2O)n1` (stereo not given), the TGI with DMS 273 small cell lung was more than 100 µM; in the assay on NCI-H226 lung, 84.2 µM; in the assay on RXF 393 renal, more than 100 µM; in the assay on OVCAR-3 ovarian it was more than 100 µM; with ACHN renal it was 90.8 µM; with IGROV1 ovarian, more than 100 µM. Also, the TGI in the assay with M19-MEL melanoma and with SK-MEL-28 melanoma was more than 100 µM in each case.

With `CC(=O)OCC1OC(SC2=NC(=O)CS2)C(OC(C)=O)C(OC(C)=O)C1OC(C)=O` (stereo not given), the TGI in the assay on MDA-MB-231 breast, in the assay with NCI-H226 lung, with RXF 393 renal, with BT-549 breast, in the assay with OVCAR-3 ovarian and in the assay with ACHN renal was more than 100 µM throughout. The TGI in the assay with MDA-N, in the assay with IGROV1 ovarian and with SK-MEL-28 melanoma was more than 100 µM throughout.

Consider `CC(=O)CC(=O)N1CCSC1=S`, for which the TGI in the assay on MDA-MB-231 breast, in the assay with NCI-H226 lung, in the assay with RXF 393 renal, in the assay with BT-549 breast, in the assay with OVCAR-3 ovarian and in the assay on ACHN renal was more than 10 µM in each case. Besides, the TGI in the assay with MDA-N, in the assay with IGROV1 ovarian and in the assay with SK-MEL-28 melanoma was more than 10 µM each time.

Take `CCCC1=C(OC)C(=O)c2c(C)cc(Cl)nc2C1=O`: the TGI in the assay on MDA-MB-231 breast was 19.5 µM; in the assay with NCI-H226 lung, 33.2 µM; with RXF 393 renal, 20.2 µM; in the assay on BT-549 breast, 26.5 µM; with OVCAR-3 ovarian, 6.54 µM; in the assay with ACHN renal it was 17.4 µM. In addition, the figures for the TGI in the assay on MDA-N, with IGROV1 ovarian and with SK-MEL-28 melanoma were 3.33 µM, 30.3 µM and 16.7 µM, respectively.

As for `Cn1c2ccccc2n2c3ncccc3c(=O)cc12`, the TGI with MDA-MB-231 breast, in the assay with NCI-H226 lung, in the assay on RXF 393 renal, in the assay with BT-549 breast, with OVCAR-3 ovarian and with ACHN renal was more than 100 µM throughout. The TGI with MDA-N, with IGROV1 ovarian and in the assay on SK-MEL-28 melanoma was more than 100 µM each time.

Turning to `O=C1C=CC2(O[C@H](C3CCCCC3)[C@@H](C3CCCCC3)O2)C(SC(=O)c2ccccc2)C1` (stereo not given in full), the TGI stood at 5.11 µM in the assay on MDA-MB-231 breast; 1.62 µM in the assay on NCI-H226 lung; 2.49 µM with RXF 393 renal; 8.28 µM in the assay on BT-549 breast; 2.04 µM with OVCAR-3 ovarian; 6.43 µM in the assay with ACHN renal. Further, the figures for the TGI with MDA-N, in the assay on IGROV1 ovarian and in the assay on SK-MEL-28 melanoma were 7.2 µM, 9.1 µM and 3.15 µM, respectively.

In the case of `CC(c1ccccc1)n1cncc1C(=O)NN1CCN(C)CC1` (stereo not given), the TGI in the assay with MDA-MB-231 breast, in the assay with NCI-H226 lung, with RXF 393 renal, with BT-549 breast, in the assay with OVCAR-3 ovarian and with ACHN renal was more than 10 µM in each case. In addition, the TGI in the assay with MDA-N, in the assay on IGROV1 ovarian and with SK-MEL-28 melanoma was more than 10 µM each time.

Take `Cc1ccc(N2C(=O)C3CSCN3C2=O)cc1` (stereo not given): the TGI in the assay with NCI-H226 lung was more than 100 µM; in the assay with RXF 393 renal it was more than 100 µM; with OVCAR-3 ovarian it was more than 100 µM; in the assay on IGROV1 ovarian it was more than 100 µM; in the assay on M19-MEL melanoma it was more than 100 µM; with SK-MEL-28 melanoma it was > 100 µM and 31.2 µM. The GI50 in the assay on RXF 393 renal and with SK-MEL-28 melanoma was more than 100 µM in each case.

In the case of `COc1ccc(OC)c2c(C)ccnc12`, the TGI in the assay with MDA-MB-231 breast is more than 100 µM; in the assay with NCI-H226 lung it was more than 93.4 µM; with RXF 393 renal, more than 100 µM; in the assay with BT-549 breast, more than 100 µM; in the assay with OVCAR-3 ovarian, 26 µM; in the assay on ACHN renal it was more than 100 µM. The figures for the TGI with MDA-N, in the assay on IGROV1 ovarian and in the assay on SK-MEL-28 melanoma were more than 100 µM, more than 66.4 µM and more than 100 µM, respectively.

Regarding `CC(CCc1nc2ccccc2s1)(c1ccc(O)cc1)c1ccc(O)cc1`, the TGI in the assay with MDA-MB-231 breast stood at 32 µM; with NCI-H226 lung, 41.1 µM; in the assay on RXF 393 renal, 33.2 µM; in the assay with BT-549 breast it was 39.7 µM; in the assay on OVCAR-3 ovarian it was 31.3 µM; with ACHN renal it was 33.2 µM. The TGI with MDA-N was determined as 31.1 µM; with IGROV1 ovarian it was 28.3 µM; with SK-MEL-28 melanoma, 33.7 µM.

In the case of `O=C1c2ccccc2C2(c3ccc(F)cc3)NCCN12` (stereo not given), the TGI with MDA-MB-231 breast, in the assay with NCI-H226 lung, in the assay on RXF 393 renal, in the assay with BT-549 breast, in the assay on OVCAR-3 ovarian and in the assay on ACHN renal was more than 100 µM in each case. In addition, the TGI with MDA-N, in the assay on IGROV1 ovarian and with SK-MEL-28 melanoma was more than 100 µM in each case.

For the compound `Cc1cc(C)c2c(c1)C/C(=C\c1cccc(C)c1C(=O)O)C2=O`, the TGI with MDA-MB-231 breast, in the assay with NCI-H226 lung, in the assay on RXF 393 renal, in the assay on BT-549 breast, in the assay with OVCAR-3 ovarian and with ACHN renal was more than 100 µM each time. Further, the TGI in the assay with MDA-N, with IGROV1 ovarian and in the assay with SK-MEL-28 melanoma was more than 100 µM in each case.

For `c1cc2cc3c4c5c(cc6ccc7cc8cc9c%10c8c8c7c6c5c8c5c%10c(c1C9N1CCOCCOCCOCCOCCOCC1)c2c45)C3` (stereo not given), the TGI in the assay with MDA-MB-231 breast, with NCI-H226 lung, in the assay on RXF 393 renal, in the assay with BT-549 breast, with OVCAR-3 ovarian and with ACHN renal was more than 100 µM in each case. Besides, the TGI in the assay on MDA-N, in the assay with IGROV1 ovarian and with SK-MEL-28 melanoma was more than 100 µM in each case.
